These results are taken from patent US7465582B1, “Nurr-1 induction of a dopaminergic neuronal fate in a neural stem cell or neural progenitor cell in vitro” (Neuro Therapeutics AB, priority 2000, dated 2008).

Assay [1] concerns Nurr1 over-expressing C17.2 clones. Kind of assay: Treatment of Nurr1 clones with trophic factors, mitogens, cytokines and other agents; TH immunoreactivity. The format is cell-based, mouse. As to conditions: Nurr1 clones without co-culture; factors alone or combined. The text has this:
C17.2 cells were cotransfected with a CMX-Nurr1 expression vector (Perlmann, T. et al. Genes Dev. 9, 769-782 (1995)) and PGK-puromycin resistance plasmids (Nurr1 clones) or a PGK-puromycin alone (mock clones). For reporter assays, C17.2 parental cells were transfected with the Nurr1 expression vector, the reporter plasmid (NGFIB-binding response element (NBRE) triplet upstream of TK minimal promoter fused to firefly luciferase) and a pRSV-alkaline phosphatase plasmid at a 2:1:2 ratio.
(§1) C17.2 neural stem cells (Snyder, E. Y. et al. Cell 68, 33-51 (1992)) were maintained and passaged as previously described (Snyder, E. Y. et al. Cell 68, 33-51 (1992)). Ventral mesencephala from E16 rat embryos were dissected, mechanically dissociated and plated at a final density of 1×10^5 cells/cm^2 on poly-D-lysine coated culture wells in a defined, serum-free medium (N^2, consisting of a 1:1 mixture of F12 and DMEM containing insulin (10 ng/ml), transferrin (100 μg/ml), putrescine (100 μM), progesterone (20 nM), selenium (30 nM) glucose (6 mg/ml), and bovine serum albumin (1 mg/ml)). After 24 hours in vitro, co-cultures were initiated by directly plating 2.5−5×10^4 C17.2-derived cells into the primary cultures; all ages of cultures given use this point as 0 DIV. […] Purified Type 1 astrocytes were obtained from mixed glial cultures derived from various regions of P1 rats according to a standard protocol (McCarthy, K. D. et al. J. Cell Biol. 85, 890-902 (1980)). After replating into 6- or 12-well plates, astrocytes were grown to confluency in serum-containing media and changed to N2 medium. After 3-5 DIV, co-cultures were initiated in fresh N2 as described above. All factors were added once, at the initiation of co-culture (concentrations are noted in the Results and Discussion), with the exception of 5-bromodeoxyuridine (BrdU), which was added 4-6 hours prior to fixation. Cultures were maintained in a humidified 5% CO2, 95% air incubator at 37 C and fixed after given time periods with 4% paraformaldehyde for 45 minutes for immunocytochemical analysis.
Fixed cultures were incubated with one of the following antibodies, diluted appropriately in phosphate-buffered saline (PBS) containing 1% bovine serum albumin and 0.3% Triton-X 100: mouse anti-BrdU, 1:50 (DAKO, Denmark), mouse anti-β-tubulin, Type III (TuJ1), 1:250 (Sigma), mouse anti-TH, 1:1000 (Incstar, USA), rabbit anti-β-galactosidase, 1:250 (Cappel, USA) rabbit anti-GFAP, 1:500 (DAKO, Denmark), rabbit anti-AHD-2, 1:4000. Incubations were either carried out at 4° C. overnight, or at room temperature for 1 hour. […] After washing, cultures were incubated for 1-3 hr with appropriate secondary antibodies (biotinylated horse-anti-mouse IgG or goat-anti-rabbit IgG, Vector, USA), 1:100, in the same dilution buffer. Immunostaining was visualized with the Vector Laboratory ABC immunoperoxidase kit, using either AEC (red) or SG (grey) substrates. […] Quantitative immunocytochemical data represent means and standard errors from 100-500 cells counted in each of 3-6 separate wells from 2-4 experiments. For quantitation of TH expression in co-cultures of primary and C-17.2-derived cells, TH was visualized with the brightfield AEC substrate, while β-gal was assessed using FITC, thus all data expressed as “% TH+” represents the number of TH+/β-gal+divided by total β-gal positive cells.

Assay [2] concerns parental C17.2 cells. Kind of assay: Co-culture of parental C17.2 cells with primary E16 ventral mesencephalic cells; TH expression. In kind it is cell-based, mouse. As to conditions: parental C17.2 cells in co-culture; SR11237 to 1 μM, bFGF to 10 ng/ml. As to the method: (§2) C17.2 neural stem cells (Snyder, E. Y. et al. Cell 68, 33-51 (1992)) were maintained and passaged as previously described (Snyder, E. Y. et al. Cell 68, 33-51 (1992)). Ventral mesencephala from E16 rat embryos were dissected, mechanically dissociated and plated at a final density of 1×10^5 cells/cm^2 on poly-D-lysine coated culture wells in a defined, serum-free medium (N^2, consisting of a 1:1 mixture of F12 and DMEM containing insulin (10 ng/ml), transferrin (100 μg/ml), putrescine (100 μM), progesterone (20 nM), selenium (30 nM) glucose (6 mg/ml), and bovine serum albumin (1 mg/ml)). After 24 hours in vitro, co-cultures were initiated by directly plating 2.5−5×10^4 C17.2-derived cells into the primary cultures; all ages of cultures given use this point as 0 DIV. […]
(§3) Fixed cultures were incubated with one of the following antibodies, diluted appropriately in phosphate-buffered saline (PBS) containing 1% bovine serum albumin and 0.3% Triton-X 100: mouse anti-BrdU, 1:50 (DAKO, Denmark), mouse anti-β-tubulin, Type III (TuJ1), 1:250 (Sigma), mouse anti-TH, 1:1000 (Incstar, USA), rabbit anti-β-galactosidase, 1:250 (Cappel, USA) rabbit anti-GFAP, 1:500 (DAKO, Denmark), rabbit anti-AHD-2, 1:4000. […] Quantitative immunocytochemical data represent means and standard errors from 100-500 cells counted in each of 3-6 separate wells from 2-4 experiments. […]

The test system of assay [3] is RXR retinoid receptors. As to conditions: Lehmann et al. 1992; cited from earlier work.
In assay [4] the test system is Nurr1-C17.2 clone 42. Kind of assay: Co-culture of Nurr1-C17.2 clone 42 with primary E16 ventral mesencephalic cells; TH expression. In kind it is cell-based, mouse. As to conditions: clone 42 with primary VM cells. As to the method:
as §2, §3

In assay [5] the test system is Nurr1 clones. Kind of assay: bFGF pretreatment of Nurr1 clones before co-culture with primary ventral mesencephalic cultures; BrdU labeling and TH expression. As to conditions: bFGF pretreatment 5 DIV. The format is cell-based, mouse. On the procedure:
as §2, §3
For orientation: Uptake of a labelled nucleoside into DNA is a usual measure of proliferation.

The test system of assay [6] is C17.2 clonal lines. Kind of assay: Baseline proliferation of clonal lines after extended factor treatment in serum-free medium. The format is cell-based, mouse. The conditions noted are these: after extended treatment with the factor in serum-free medium; most clonal lines. As to the method:
as §1, with “Cultures were maintained in a humidified 5% CO2, 95% air incubator at 37 C and fixed after given time periods with 4% paraformaldehyde for 45 minutes for immunocytochemical analysis.” left out

The test system of assay [7] is Nurr1-c42-derived dopaminergic neurons. Kind of assay: Response of TH positive c42 cells in co-culture to neurotrophic factors. The format is cell-based, mouse. The conditions noted are these: 9 DIV, after SR11237 and bFGF induction; compared to N2 control; NT-3 30 ng/ml. On the procedure:
as §2, §3

Assay [8] concerns C17.2 cells. As to conditions: Kitchens et al. 1994; cited from earlier work.

As for sonic hedgehog, the “induction of TH expression” value in assay [1] is “None of these factors induced TH expression in any of the clones”.

Turning to `CC1(C)CCC(C)(C)c2cc(C3(c4ccc(C(=O)O)cc4)OCCO3)ccc21` [SR11237, reference compound], the “induction of TH expression” value in assay [2] is on record as “did not induce expression of TH”. In addition, the “stimulation of RXR retinoid receptors” value in assay [3] is “specifically stimulates RXR retinoid receptors”.

As to `CC1=C(/C=C/C(C)=C/C=C/C(C)=C/C(=O)O)C(C)(C)CCC1` [all-trans retinoic acid, reference compound], the “effect on TH expression in co-culture (in words)” value in assay [4] is reported as “without effect”.

In the case of “bFGF: basic fibroblast growth factor, mitogen”, the “induction of TH expression” value in assay [1] is given as “None of these factors induced TH expression in any of the clones”; in assay [2] it was “did not induce expression of TH”. Besides, the “% TH+ cells after co-culture” value in assay [5] (co-culture 9 DIV, highest value, clone 42) is ≤ 45%. Moreover, the “BrdU labeling of pretreated Nurr1 clones” value in assay [5] (24 hours after passage into co-culture, versus cells split directly out of serum-containing medium) was “increased”. Besides, the “baseline proliferation after passage into SFM alone” value in assay [6] is “remained unexpectedly elevated”. In addition, the “number of TH+ cells in the culture” value in assay [7] is recorded as “dramatically increased the number of TH+ cells”. For the same compound, the mitogenic effect result in assay [8] was “directly mitogenic”.

For “EGF: epidermal growth factor, mitogen (NSDSECPLSHDGYCLHDGVCMYIEALDKYACNCVVGYIGERCQYRDLKWWELR; Epidermal growth factor; UniProt P01133 971-1023, looked up)”, the “induction of TH expression” value in assay [1] is “None of these factors induced TH expression in any of the clones”. The “effect on TH expression in co-culture (in words)” value in assay [4] is reported as “effects of bFGF could be substituted by EGF”. Moreover, the “baseline proliferation after passage into SFM alone” value in assay [6] is “remained unexpectedly elevated”. In assay [8], the mitogenic effect entry is recorded as “directly mitogenic”.

As to insulin-like growth factor, in assay [1], the “induction of TH expression” value is “None of these factors induced TH expression in any of the clones”.

For `NCCc1ccc(O)c(O)c1` [dopamine], the “induction of TH expression” value in assay [1] is “None of these factors induced TH expression in any of the clones”.
